Measured values taken from the NIST ThermoML archive (doi:10.1016/j.jct.2015.07.006).
“And” between values parts separate entries of the source, which are not always exact repeats. Identical values can stand only once. Numbers after ± are expanded uncertainties.

Test: mn = molality of the nth substance listed, in mol/kg
Conditions: 298.15 K, 100 kPa, Liquid, Vibrating tube method

[O]=[Tc](=[O])(=[O])[OH] [pertechnetic acid] + O
Conditions | mass density
m1 = 0.000983 | 996.83 ± 2 kg/m3
m1 = 0.00102 | 996.91 ± 2 kg/m3
m1 = 0.00113 | 996.91 ± 2 kg/m3 and 996.92 ± 2 kg/m3
m1 = 0.00124 | 996.91 ± 2 kg/m3
m1 = 0.00159 | 996.95 ± 2 kg/m3
m1 = 0.1 | 1008.7 ± 2 kg/m3
m1 = 0.103 | 1008.77 ± 2 kg/m3
m1 = 0.114 | 1009.95 ± 2 kg/m3
m1 = 0.115 | 1010.3 ± 2 kg/m3
m1 = 0.127 | 1011.76 ± 2 kg/m3
m1 = 0.163 | 1016.23 ± 2 kg/m3
m1 = 0.888 | 1097.53 ± 2.2 kg/m3
m1 = 0.98 | 1107.47 ± 2.2 kg/m3
m1 = 1.007 | 1117.47 ± 2.3 kg/m3
m1 = 1.096 | 1127.7 ± 2.3 kg/m3
m1 = 1.182 | 1137.34 ± 2.3 kg/m3
m1 = 1.265 | 1146.5 ± 2.3 kg/m3
m1 = 1.347 | 1155.88 ± 2.3 kg/m3
m1 = 1.398 | 1164.11 ± 2.4 kg/m3
m1 = 1.535 | 1178.55 ± 2.4 kg/m3
m1 = 1.696 | 1195.28 ± 2.4 kg/m3
m1 = 2.034 | 1225.06 ± 2.5 kg/m3
m1 = 2.106 | 1235.3 ± 2.5 kg/m3
m1 = 2.211 | 1243.09 ± 2.5 kg/m3
m1 = 2.45 | 1263.95 ± 2.6 kg/m3
m1 = 2.555 | 1272.74 ± 2.6 kg/m3
m1 = 2.667 | 1283.23 ± 2.6 kg/m3
m1 = 2.783 | 1293.03 ± 2.6 kg/m3
m1 = 2.908 | 1303.34 ± 2.7 kg/m3
m1 = 3.042 | 1314.68 ± 2.7 kg/m3
m1 = 3.33 | 1335.81 ± 2.7 kg/m3
m1 = 3.49 | 1348.06 ± 2.8 kg/m3
m1 = 3.693 | 1374.94 ± 2.8 kg/m3
m1 = 3.884 | 1389.83 ± 2.9 kg/m3
m1 = 4.038 | 1399.11 ± 2.9 kg/m3
m1 = 4.46 | 1434.87 ± 2.9 kg/m3
m1 = 4.661 | 1446.75 ± 3 kg/m3
m1 = 4.851 | 1460.83 ± 3 kg/m3
m1 = 5.049 | 1475.34 ± 3 kg/m3
m1 = 5.257 | 1490.81 ± 3.1 kg/m3
m1 = 5.485 | 1507.23 ± 3.1 kg/m3
m1 = 5.722 | 1523.34 ± 3.1 kg/m3
m1 = 6.254 | 1556.61 ± 3.2 kg/m3
m1 = 6.537 | 1574.08 ± 3.3 kg/m3
m1 = 6.849 | 1593.38 ± 3.3 kg/m3
m1 = 7.187 | 1612.75 ± 3.3 kg/m3
m1 = 7.54 | 1634.13 ± 3.4 kg/m3
m1 = 7.918 | 1657.06 ± 3.4 kg/m3
m1 = 8.323 | 1679.31 ± 3.5 kg/m3
